Measured values: ChEMBL document CHEMBL1125820, “Structure-activity relationship of mutagenic aromatic and heteroaromatic nitro compounds. Correlation with molecular orbital energies and hydrophobicity” (J Med Chem, 1991)

Tests used:
Salmonella typhimurium [1] = test: Mutagenic activity in Salmonella Typhimurium TA98 using Ames test; Activity is log of revertants / nmol; a= inactive; format: functional, Salmonella enterica subsp. enterica serovar Typhimurium
[2] = Partition coefficient (logP); settings: octanol/water
Salmonella typhimurium [3] = test: Mutagenic activity in an Ames test on Salmonella Typhimurium TA98; Activity is log of revertants/nmol; format: functional, Salmonella enterica subsp. enterica serovar Typhimurium; parameters: scale not given here

SMILES	Activity (Salmonella typhimurium [1])	logP [2]	Activity (Salmonella typhimurium [3])
O=[N+]([O-])c1c2ccccc2cc2ccccc12	-0.95	4.78	–
O=[N+]([O-])c1cccc2cn[nH]c12 [7-NITROINDAZOLE]	–	1.75	0.11
O=[N+]([O-])c1ccc(Cl)c([N+](=O)[O-])c1 [DINITROCHLOROBENZENE]	–	2.17	0.3
O=C1NCCN1c1ncc([N+](=O)[O-])s1 [NIRIDAZOLE]	–	0.95	2.59
NC(=O)N/N=C/c1ccc([N+](=O)[O-])o1 [NITROFURAZONE]	–	0.23	1.02
